From patent publication US10566550B2, “Formulation containing an organic semiconductor and a metal complex” (Merck Patent GmbH, priority 2015, dated 2020)
≈ marks a conversion by molar mass, not a printed value.

Assay: Solubility of the materials in various solvents at 20° C.
Type: physicochemical
Details: organic solvent or mixture, thermodynamic from solid
Description: For the purposes of this application, the solubility of a material in a solvent is taken to mean the highest material-to-solvent ratio in which the solution at room temperature (at about 20° C.), is clear and stays clear for at least several hours, preferably for at least 5 hours.
The solubility of a material in a solvent is the highest material-to-solvent ratio in which the solution at 20° C. is clear and stays clear for several hours.
The solubility (g/l) is determined according to the following method:
(1) A known amount of the solvent (for example 100 mL) is put in a container
(2) A defined amount of the material is added and the mixture is stirred with a magnetic stirring bar;

[1] = LM8 Toluene:Hexafluorobenzene (7:3)

Structure (SMILES) | solubility (LM1 Anisole:Xylene (2:1)) | solubility (LM2 Anisole) | solubility (LM3 Xylene) | solubility (LM4 Chlorobenzene) | solubility (LM5 THF) | solubility (LM6 Toluene:THF (9:1)) | solubility (LM7 Hexafluorobenzene) | solubility [1] | solubility (LM9 Meta-difluorobenzene) | solubility (LM10 Fluorobenzene) | solubility (LM11 Acetonitrile) | solubility (LM12 Benzonitrile) | solubility (LM13 Acetone) | solubility (LM14 DMF) | solubility (LM15 Toluene:DMF (8:2)) | solubility (LM16 DMSO) | solubility (LM17 Methanol) | solubility (LM18 Toluene:Methanol (8:2)) | solubility (LM19 EGDME) | solubility (LM20 Toluene)
O=C([O][Bi]([O]C(=O)c1ccc(F)c(F)c1F)[O]C(=O)c1ccc(F)c(F)c1F)c1ccc(F)c(F)c1F [M1] | < 7.5 mg/mL | < 7.5 mg/mL | < 7.5 mg/mL | < 7.5 mg/mL | > 100 mg/mL | > 30 mg/mL | 15 to 20 mg/mL | 15 mg/mL | < 7.5 mg/mL | < 7.5 mg/mL | < 10 mg/mL | > 20 mg/mL | > 20 mg/mL | > 40 mg/mL | 15 mg/mL | > 20 mg/mL | > 20 mg/mL | 20 mg/mL | > 20 mg/mL | < 7.5 mg/mL
CC1(C)c2ccccc2-c2ccc(N(c3ccc4c(c3)C3(c5ccccc5-c5ccccc53)c3ccccc3-4)c3ccccc3-c3ccccc3)cc21 [OS6] | > 50 mg/mL | 100 mg/mL (≈ 148 mM) | 40 mg/mL (≈ 59.2 mM) | – | > 40 mg/mL | > 50 mg/mL | – | 30 mg/mL (≈ 44.4 mM) | – | – | – | – | – | 10 mg/mL (≈ 14.8 mM) | 25 mg/mL (≈ 37 mM) | 10 mg/mL (≈ 14.8 mM) | – | 30 mg/mL (≈ 44.4 mM) | – | 60 mg/mL (≈ 88.8 mM)
